Data: US11510980B2, “Brartemicin analogues” (VICTORIA LINK LTD, priority 2017, dated 2022)
Entries after “also recorded” stand apart in the source; their conditions may differ.

Tests used:
C57BL/6 mice = experiment: Delayed-type hypersensitivity immunisation with OVA in oil-in-water emulsion; assay type: in vivo; settings: for Th1 immune response / adjuvant activity in vivo: oil-in-water emulsion
Method: Delayed-type hypersensitivity: Mice were sensitised by subcutaneous injection with oil-in-water emulsions (mineral oil/Tween-80/PBS, 9:1:90, v/v/v) containing OVA only (200 μg), OVA+TDB (OVA=200 μg, TDB=0.3 μmol), OVA+9a (OVA=200 μg, 9a=0.3 μmol) or no OVA. After seven days, the mice were challenged with OVA (100 μg/footpad) and after a further seven days, the mice were sacrificed and their spleens harvested. For in vitro restimulation, splenocytes were restimulated with OVA and analysed for spenocyte number (measured at 450 nm after 3 hours, Cell Count Reagent SF, Nacalai Tesque Inc.), IFN-γ production, and IL-17 production. Footpad swelling was measured using a venier caliper pre-challenge, 24 hours post-challenge, and 48 hours post-challenge. Sera were collected from each mouse on days 0, 7, and 14 and analysed for OVA-specific antibody titers by ELISA using HRP coupled goat anti-mouse IgG (GE Health-care), IgG1, IgG2b, IgG2c, and IgG3 (SouthernBiotec). EC50 were defined by plotting the absorbance at 450 nm against log of serum concentration. Antibody titration curves were plotted using GraphPad Prism7 (GraphPad Software).
Compound 9a was then evaluated in vivo to confirm its capacity to induce a Th1 antigen-specific response using a delayed-type hypersensitivity immunisation protocol. To this end, four groups of C57BL/6 mice were immunised by subcutaneous injection with oil-in-water emulsions containing either OVA only, OVA+C18dMeBrar (9a), OVA+TDB, or no OVA. After seven days the mice were challenged with OVA (100 μg per footpad) and after a further seven days, the splenocytes were isolated and restimulated with OVA at three concentrations (10, 30, or 100 μg/mL). The immune response was measured by determining footpad swelling, production of IFN-γ and IL-17 (FIG. 7b), T cell proliferation (FIG. 4a), and antibody titres (FIG. 4c). […] Accordingly, the ability of C18dMeBrar (9a) to lead to an enhanced Th1 immune response was even more striking. This overall immune profile was also reflected in the antibody production by immunised mice. […] A high IgG2c:IgG1 ratio is commonly associated with Th1 responses and a lower ratio is associated with Th2 responses. The production of IgG2c in mice immunised with C18dMeBrar increased three-fold as compared to OVA alone, providing evidence that C18dMeBrar induces a Th1-biased immune response.

wild-type GM-CSF BMDMs = experiment: Cytokine/chemokine production by wild-type GM-CSF BMDMs on ligand-coated plates; assay type: cell-based, C57BL/6 mice; settings: wild-type BMDMs, coated plates 0.1 or 1 nmol/well, 24 hours, ELISA
Method: (§1) Preparation of ligand-coated plates: Brartemicin analogues 9a-9i, TDM (Carbosynth, Sigma Aldrich), and TDB^14 were dissolved in CHCl3:MeOH (2:1, 1 mM), diluted in isopropanol ([…]) and added to 96-well plates (20 μL/well). The solvents were evaporated and the coated plates were used immediately.
Murine bone-marrow derived macrophages: For the preparation of murine bone-marrow derived macrophages, bone marrow cells were collected from the tibias and femurs of C57BL/6 mice and cultured (250,000 cells/mL) in complete RPMI media [RPMI-1640 (Gibco) with 10% heat inactivated fetal bovine serum (Gibco), 100 unit/mL penicillin-streptomycin (Gibco) and 2 mM Glutamax (Gibco)] supplemented with 50 ng/mL GM-CSF (clone X63/GM-CSF murine cells). Cells were incubated at 37° C. (5% CO2) for 8 days (cells fed by replacing half the media on days 3 and 6). On day 8, all media was removed and the cells were washed with Dulbecco's Phosphate-Buffered Saline (DPBS, Gibco) to remove any loosely-adherent cells. The BMDMs were harvested with StemPro Acutase (1 mL/well, 15 minutes at room temperature, Gibco) and seeded onto a pre-coated 96-well plate. The supernatant was collected and analysed for cytokine/chemokine production after 24 hours.
Cytokine analysis: IL-1β, IFN-γ, IL-6, TNF-α (BD Biosciences), IL-17, and MIP-2 (R&D) levels were determined via sandwich ELISA according to the manufacturer's instructions.
First, the ability of the compounds to activate GM-CSF BMDMs was determined by monitoring the secretion of the inflammatory cytokines TNF, IL-6, and IL-1β and the chemokine, MIP-2, in a ligand-coated plate assay (FIG. 2).
To gain insight into the capacity of the 2G-series of brartemicin analogues to induce an inflammatory immune response, the analogues were then screened for their ability to activate WT and Mincle^−/− BMDMs, with cellular activation being determined by the measurement of IL-1B using ELISA (FIG. 6).

hMincle-Ig = target: T1, hMincle-Ig (Homo sapiens, UniProt Q9ULY5); experiment: In vitro Mincle binding assay (ELISA) with hMincle-Ig fusion protein; settings: plate-coated ligand 0.1 nmol/well
T1 construct: using soluble Mincle-Ig fusion-proteins; made in house
T1 sequence (Q9ULY5 41-219 limits assumed): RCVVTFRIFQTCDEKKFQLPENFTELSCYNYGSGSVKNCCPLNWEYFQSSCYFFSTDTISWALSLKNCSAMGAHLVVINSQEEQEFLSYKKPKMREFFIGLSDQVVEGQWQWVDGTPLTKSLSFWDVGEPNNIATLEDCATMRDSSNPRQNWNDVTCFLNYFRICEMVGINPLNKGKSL
Method: as §1
In vitro Mincle binding assay: The preparation of mMincle- and hMincle-Ig fusion proteins have been previously described. Plate-coated glycolipids 9a-i, TDB, and TDM were incubated with hMincle-Ig, mMincle-Ig, or hIgG1-Fc (Ig) [3 μg/mL in binding buffer (20 mM Tris-HCl, 150 mM NaCl, 1 mM CaCl2), 2 mM MgCl2, pH 7.0)]. Detection of bound protein was achieved via incubation with anti-hIgG-HRP followed by the addition of a colorimetric substrate and measurement of OD at 450 nm. Background was accounted for by subtracting the hIgG1-Fc OD450 values from fusion protein OD450 values
The synthesised brartemicin analogues prepared in Example 1 were first tested for their ability to bind to both human and murine Mincle in an enzyme-linked immunosorbent assay (ELISA) using soluble Mincle-Ig fusion-proteins (FIG. 1a).

[1] = s.c. OVA 200 μg + adjuvant 0.3 μmol

binding to hMincle-Ig (ELISA, OD at 450 nm) (hMincle-Ig): good binding
Substance: 6,6′-Di-O-(2-hydroxy-4-octabenzyloxybenzoyl)-α,α′-D-trehalose [9a]
cell count compared to TDB (C57BL/6 mice; all concentrations of OVA re-stimulation): significant increase in cell count
number of splenocytes as compared to OVA alone (C57BL/6 mice; [1]): significantly larger number of splenocytes
Th1 immune response / adjuvant activity in vivo (C57BL/6 mice; [1]): potent adjuvant activity in vivo; also recorded: strong Th1 recall response; also recorded: polarised immune response with a distinct Th1 profile
Th1 immune response / adjuvant activity in vivo (C57BL/6 mice; s.c. OVA 200 μg + adjuvant 0.3 μmol, listed as C18dMeBrar): stronger Th1 immune response
footpad swelling (C57BL/6 mice; s.c. OVA 200 μg + adjuvant 0.3 μmol, OVA challenge 100 μg/footpad): neither 9a nor TDB induced any
IL-17 production by splenocytes restimulated with OVA (C57BL/6 mice; s.c. OVA 200 μg + adjuvant 0.3 μmol, restimulation 10, 30 or 100 μg/mL OVA): neither 9a nor TDB induced any
antigen specific IFN-γ production, re-stimulating with 100 μg/mL of antigen (C57BL/6 mice; s.c. OVA 200 μg + adjuvant 0.3 μmol, splenocytes restimulated with 100 μg/mL OVA): significantly enhanced cytokine production
antigen specific IFN-γ production, all concentrations of OVA (C57BL/6 mice; s.c. OVA 200 μg + adjuvant 0.3 μmol, splenocytes restimulated with 10, 30 or 100 μg/mL OVA): trend towards increased
IgG1 antibody production (C57BL/6 mice; serum, ELISA): showed increases
IgG2b antibody production (C57BL/6 mice; serum, ELISA): showed increases
IgG2c antibody production (C57BL/6 mice; serum, ELISA): showed increases
production of IgG2c as compared to OVA alone (C57BL/6 mice; serum, ELISA): three-fold
production of OVA-specific IgG antibodies (C57BL/6 mice; serum, ELISA): elevated the production of IgG antibodies
production of OVA-specific IgG antibodies (C57BL/6 mice; serum, ELISA, listed as C18dMeBrar): only significant for C18dMeBrar
IL-1β production (wild-type GM-CSF BMDMs): significant production
IL-6 production (wild-type GM-CSF BMDMs): significant production
MIP-2 production (wild-type GM-CSF BMDMs): significant production
TNF production (wild-type GM-CSF BMDMs): significant production
